Experiment [1] deals with Mycobacterium tuberculosis. Nature of the experiment: Antitubercular activity against Mycobacterium tuberculosis H37Rv after 30 days by agar microdilution method. The class given is functional.
Experiment [2] concerns Mycobacterium tuberculosis. The experiment is described as follows: Antitubercular activity against Mycobacterium tuberculosis H37Ra after 5 days by micro Alamar blue essay. The class given is functional. The settings on record: 120 h.

In brackets after ≈: the same amount, converted by molar mass.

As usually defined, the MIC is the smallest concentration in the dilution series that meets the test's criterion for growth inhibition.

`NNC(=O)c1ccncc1` [ISONIAZID] returned an MIC in experiment [1] of 0.65 µg/mL (≈ 4.74 µM).
As to `COC1=C(OC)C(=CCn2cnc3ccccc32)OC1=O`, the MIC is greater than 25 µg/mL in experiment [1] and greater than 12.5 µg/mL in experiment [2].
In the same order, the values of `COC1=C(OC)C(O)(CCn2ccnc2)N(Cc2ccccc2)C1=O` (centres undefined) are greater than 25 µg/mL and greater than 12.5 µg/mL.
Take `COC1=C(OC)/C(=C/Cn2ccnc2)OC1=O`: the MIC is greater than 25 µg/mL in experiment [1] and greater than 12.5 µg/mL in experiment [2].
In the same order, the values of `COC1=C(OC)/C(=C/Cn2cnc3c(N)ncnc32)OC1=O` are greater than 25 µg/mL and greater than 12.5 µg/mL.
